From US20140005163A1 (NOVARTIS AG, priority 2010, published 2014) come the findings set out here.

As usually defined, the IC50 is the point on the concentration scale where inhibition reaches its midpoint.

Molecules are shown by their SMILES. A value given as a limit tells only on which side of the number the result lay.

One test has as its target T1, PI3K beta (Homo sapiens, UniProt P42338).
T1 construct: for the full-length p110-b subunit are generated and fused by overlapping PCR; p85(iSH2) fusion partner (see partner chain) (N); His tag (C); made in house; host or cells: baculovirus; Tn5 (Trichoplusia ni) or TiniPro insect cells
The experiment in a line: PI3K beta kinase assay (Kinase-Glo luminescence). Type of test: biochemical. In short, it runs like this: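 Enzyme: BV949 p85(iSH2)-Gly linker-p110β FL-His, 25 nM. Substrate: PI 10 μg/mL. ATP: 1 μM, added to start. Buffer: Tris pH 7.5 10 mM, MgCl2 3 mM, NaCl 50 mM, CHAPS 0.05%, DTT 1 mM. RT, 60 min. Readout: Kinase-Glo. IC50 by 4-parameter fit.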

For test [1], the system named is PKB Ser473 phosphorylation in Rat1-myr-HA-p110 beta cells. In words: Reverse protein array assay, PKB Ser473 phosphorylation in Rat1-myr-p110 beta cells. The settings on record: 0.5 h, pAkt Ser473, 30 minutes incubation, read-out: p-PKB IC50. Type of test: cell-based. In short, it runs like this: (§1)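 Measured: PKB Ser473 phosphorylation by reverse protein array in Rat1 cells expressing myr-HA-p110 alpha, beta or delta, after 30 min compound treatment at 37 °C with 0.2% DMSO vehicle.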

In test [2] the test system is PKB Ser473 phosphorylation in Rat1-myr-HA-p110 delta cells. In words: Reverse protein array assay, PKB Ser473 phosphorylation in Rat1-myr-p110 delta cells. Format: cell-based. The settings on record: read-out: p-PKB IC50. In short, it runs like this: as §1
A further test deals with T2, PI3K alpha (Homo sapiens, UniProt P42336).
T2 construct: p85(iSH2) fusion partner (see partner chain) (N); His tag (C); made in house; host or cells: baculovirus; Tn5 (Trichoplusia ni) or TiniPro insect cells
T2 sequence (P42336 with tags, fused parts or gaps limits assumed): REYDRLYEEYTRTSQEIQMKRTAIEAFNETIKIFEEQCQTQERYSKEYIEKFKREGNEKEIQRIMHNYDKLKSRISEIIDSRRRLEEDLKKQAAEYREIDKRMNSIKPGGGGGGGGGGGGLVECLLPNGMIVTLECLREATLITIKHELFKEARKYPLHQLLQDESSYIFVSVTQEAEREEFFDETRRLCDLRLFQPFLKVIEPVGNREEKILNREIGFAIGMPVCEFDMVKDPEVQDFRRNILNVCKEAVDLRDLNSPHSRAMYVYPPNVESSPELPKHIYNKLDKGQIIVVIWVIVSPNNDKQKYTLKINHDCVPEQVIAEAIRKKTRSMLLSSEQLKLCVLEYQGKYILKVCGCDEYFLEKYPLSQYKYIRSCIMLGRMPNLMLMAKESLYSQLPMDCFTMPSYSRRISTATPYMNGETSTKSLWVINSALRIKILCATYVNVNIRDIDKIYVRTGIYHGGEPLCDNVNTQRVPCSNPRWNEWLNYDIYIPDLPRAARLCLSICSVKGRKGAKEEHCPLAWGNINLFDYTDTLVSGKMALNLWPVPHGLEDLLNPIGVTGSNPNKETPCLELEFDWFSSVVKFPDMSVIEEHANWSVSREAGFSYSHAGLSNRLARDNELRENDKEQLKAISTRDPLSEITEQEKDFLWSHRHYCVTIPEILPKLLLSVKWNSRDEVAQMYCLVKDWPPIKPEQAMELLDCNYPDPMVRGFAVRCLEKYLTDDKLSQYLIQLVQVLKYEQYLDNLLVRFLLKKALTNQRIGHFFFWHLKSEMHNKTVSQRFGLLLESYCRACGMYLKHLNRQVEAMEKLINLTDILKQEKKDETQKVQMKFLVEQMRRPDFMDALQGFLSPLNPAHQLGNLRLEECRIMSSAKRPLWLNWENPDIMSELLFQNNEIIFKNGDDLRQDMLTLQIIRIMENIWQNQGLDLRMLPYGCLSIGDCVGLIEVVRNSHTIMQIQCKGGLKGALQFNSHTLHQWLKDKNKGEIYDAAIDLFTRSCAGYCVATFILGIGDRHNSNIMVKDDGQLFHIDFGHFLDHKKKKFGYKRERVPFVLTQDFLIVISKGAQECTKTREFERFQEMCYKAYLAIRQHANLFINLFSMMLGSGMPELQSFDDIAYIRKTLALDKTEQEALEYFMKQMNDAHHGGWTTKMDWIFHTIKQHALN
The experiment in a line: PI3K alpha kinase assay (Kinase-Glo luminescence). Type of test: biochemical. The essentials:
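Enzyme 10 nM PI3Kα EMV B1075; ATP 1 μM; PI 10 μg/mL; Tris-HCl pH 7.5 10 mM, MgCl2 3 mM, NaCl 50 mM, CHAPS 0.05%, DTT 1 mM; 60 min RT; Kinase-Glo luminescence; 4-parameter IC50 fit, 8 concentrations, single points.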
In general terms: In Kinase-Glo more light means more ATP remaining.

The subject of test [3] is PKB Ser473 phosphorylation in Rat1-myr-HA-p110 alpha cells. The experiment in a line: Reverse protein array assay, PKB Ser473 phosphorylation in Rat1-myr-p110 alpha cells. Type of test: cell-based. Conditions: 0.5 h, pAkt Ser473, 30 minutes compound incubation, read-out: p-PKB IC50. In short, it runs like this: as §1

T1 sequence (P42338 with tags, fused parts or gaps limits assumed): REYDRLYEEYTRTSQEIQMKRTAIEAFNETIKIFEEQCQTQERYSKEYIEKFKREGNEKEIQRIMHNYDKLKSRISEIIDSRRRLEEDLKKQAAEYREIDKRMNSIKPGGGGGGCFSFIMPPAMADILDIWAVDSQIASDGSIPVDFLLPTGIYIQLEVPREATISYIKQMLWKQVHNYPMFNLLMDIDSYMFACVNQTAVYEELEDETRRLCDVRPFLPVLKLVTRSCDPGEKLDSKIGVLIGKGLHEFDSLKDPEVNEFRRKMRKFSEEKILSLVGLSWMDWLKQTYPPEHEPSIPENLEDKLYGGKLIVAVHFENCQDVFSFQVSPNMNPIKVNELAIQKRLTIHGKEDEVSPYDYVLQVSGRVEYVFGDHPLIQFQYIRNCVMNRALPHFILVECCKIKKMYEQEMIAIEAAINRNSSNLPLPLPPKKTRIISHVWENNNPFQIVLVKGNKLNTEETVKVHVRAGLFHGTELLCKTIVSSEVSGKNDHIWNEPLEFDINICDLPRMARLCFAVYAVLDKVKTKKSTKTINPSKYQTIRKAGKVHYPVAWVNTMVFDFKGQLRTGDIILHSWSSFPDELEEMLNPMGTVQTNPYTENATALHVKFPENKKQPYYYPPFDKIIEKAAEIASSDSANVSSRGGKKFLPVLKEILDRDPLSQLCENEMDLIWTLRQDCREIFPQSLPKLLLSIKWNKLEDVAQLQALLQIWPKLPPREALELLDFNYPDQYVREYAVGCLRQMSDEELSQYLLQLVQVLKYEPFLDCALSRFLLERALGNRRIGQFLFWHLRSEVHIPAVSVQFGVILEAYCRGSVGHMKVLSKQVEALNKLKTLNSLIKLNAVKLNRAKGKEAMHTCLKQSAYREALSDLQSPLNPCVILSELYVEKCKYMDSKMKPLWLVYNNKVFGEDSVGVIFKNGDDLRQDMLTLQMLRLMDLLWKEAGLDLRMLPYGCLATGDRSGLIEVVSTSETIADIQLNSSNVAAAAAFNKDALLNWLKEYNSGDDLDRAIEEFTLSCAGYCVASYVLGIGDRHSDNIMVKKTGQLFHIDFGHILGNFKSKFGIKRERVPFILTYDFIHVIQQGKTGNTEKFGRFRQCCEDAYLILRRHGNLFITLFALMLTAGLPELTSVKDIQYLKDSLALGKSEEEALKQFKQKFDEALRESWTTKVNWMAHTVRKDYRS

Regarding `COc1ncc(-c2ccc3ncc4c(c3c2)n(-c2cn(C(C)C)nc2C)c(=O)n4C)c(OC)n1` [Example 234.3, 8-(2,4-Dimethoxy-pyrimidin-5-yl)-1-(1-isopropyl-3-methyl-1H-pyrazol-4-yl)-3-methyl-1,3-dihydro-imidazo[4,5-c]quinolin-2-one], the IC50 on PI3K beta amounted to 150 nM; in test [1] it was 15 nM; in test [2] it was 30 nM; on PI3K alpha it was 15 nM; in test [3] it was 15 nM.

`CCn1cc(-n2c(=O)n(C)c3cnc4ccc(-c5ccc(CO)nc5)cc4c32)c(C)n1` [Example 16.1, 1-(1-ethyl-3-methyl-1H-pyrazol-4-yl)-8-(6-hydroxymethyl-pyridin-3-yl)-3-methyl-1,3-dihydro-imidazo[4,5-c]quinolin-2-one]: the IC50 at PI3K beta was 228 nM; in test [1], 34 nM; in test [2], 130 nM; at PI3K alpha, 33 nM; in test [3], 74 nM.

As for `CCOc1ccc(-c2ccc3ncc4c(c3c2)n(-c2cn(C)nc2Cl)c(=O)n4C)cn1` [Example 3.8, 1-(3-Chloro-1-methyl-1H-pyrazol-4-yl)-8-(6-ethoxy-pyridin-3-yl)-3-methyl-1,3-dihydro-imidazo[4,5-c]quinolin-2-one], the IC50 at PI3K beta was 123 nM; in test [1] it was 23 nM; in test [2], 37 nM; on PI3K alpha, 16 nM; in test [3], 15 nM.

In the case of `Cc1nn(C)cc1-n1c(=O)n(C)c2cnc3ccc(-c4cncc(OC(CF)CF)c4)cc3c21` [Example 182, 1-(1,3-Dimethyl-1H-pyrazol-4-yl)-8-[5-(2-fluoro-1-fluoromethyl-ethoxy)-pyridin-3-yl]-3-methyl-1,3-dihydro-imidazo[4,5-c]quinolin-2-one], the IC50 on PI3K beta was 11 nM; in test [1], 18 nM; in test [2], 56 nM; at PI3K alpha, 9 nM; in test [3], 15 nM.

As to `CNc1ncc(-c2ccc3ncc4c(c3c2)n(-c2c(C)noc2C)c(=O)n4C)cc1Cl` [Example 146.6, 8-(5-Chloro-6-methylamino-pyridin-3-yl)-1-(3,5-dimethyl-isoxazol-4-yl)-3-methyl-1,3-dihydro-imidazo[4,5-c]quinolin-2-one], the IC50 at PI3K beta was 281 nM; in test [1] it was 428 nM; in test [2], 564 nM; on PI3K alpha, 92 nM; in test [3], 172 nM.

`CC(=O)Nc1cc(-c2ccc3ncc4c(c3c2)n(-c2cn(C)nc2C)c(=O)n4C)cnc1Cl` [Example 222, N-{2-Chloro-5-[1-(1,3-dimethyl-1H-pyrazol-4-yl)-3-methyl-2-oxo-2,3-dihydro-1H-imidazo[4,5-c]quinolin-8-yl]-pyridin-3-yl}-acetamide]: the 50% inhibitory concentration (IC50) at PI3K beta was 134 nM; in test [1], 52 nM; in test [2], 68 nM; at PI3K alpha, 43 nM; in test [3], 55 nM.

Turning to `CCOCc1cc(-c2ccc3ncc4c(c3c2)n(-c2cn(CC)nc2C)c(=O)n4C)cnc1N` [Example 166.2, 8-(6-Amino-5-ethoxymethyl-pyridin-3-yl)-1-(1-ethyl-3-methyl-1H-pyrazol-4-yl)-3-methyl-1,3-dihydro-imidazo[4,5-c]quinolin-2-one], the 50% inhibitory concentration (IC50) at PI3K beta was found to be 81 nM; in test [1], 86 nM; in test [2], 50 nM; on PI3K alpha, 15 nM; in test [3], 38 nM.

Consider `Cc1ncc(-c2ccc3ncc4c(c3c2)n(-c2cn(C)nc2C)c(=O)n4C)cc1N(C)S(C)(=O)=O` [Example 75, N-{5-[1-(1,3-Dimethyl-1H-pyrazol-4-yl)-3-methyl-2-oxo-2,3-dihydro-1H-imidazo[4,5-c]quinolin-8-yl]-2-methyl-pyridin-3-yl}-N-methyl-methanesulfonamide], for which the IC50 at PI3K beta is 37 nM; in test [1] it was 383 nM; in test [2] it was 177 nM; on PI3K alpha, 14 nM; in test [3] it was 206 nM.

Turning to `[2H]C([2H])([2H])Nc1ncc(-c2ccc3ncc4c(c3c2)n(-c2c(C)nn(C)c2C)c(=O)n4C)cc1C(F)(F)F` [Example 143, 3-Methyl-8-(6-trideuteromethylamino-5-trifluoromethyl-pyridin-3-yl)-1-(1,3,5-trimethyl-1H-pyrazol-4-yl)-1,3-dihydro-imidazo[4,5-c]quinolin-2-one], the IC50 worked out at 111 nM on PI3K beta; 57 nM in test [1]; 86 nM in test [2]; 19 nM at PI3K alpha; 40 nM in test [3].

Regarding `COc1cc(-c2ccc3ncc4c(c3c2)n(-c2cn(CCO)nc2C)c(=O)n4C)cnc1C` [Example 211.1, 1-[1-(2-Hydroxy-ethyl)-3-methyl-1H-pyrazol-4-yl]-8-(5-methoxy-6-methyl-pyridin-3-yl)-3-methyl-1,3-dihydro-imidazo[4,5-c]quinolin-2-one], the half-inhibitory concentration (IC50) on PI3K beta turned out to be 18 nM; in test [1], 61 nM; in test [2], 211 nM; at PI3K alpha, 6 nM; in test [3], 11 nM.

`CCNc1cc(-c2ccc3ncc4c(c3c2)n(-c2cn(C)nc2C)c(=O)n4C)cnc1C` [Example 87.1, 1-(1,3-Dimethyl-1H-pyrazol-4-yl)-8-(5-ethylamino-6-methyl-pyridin-3-yl)-3-methyl-1,3-dihydro-imidazo[4,5-c]quinolin-2-one]: the IC50 was 21 nM at PI3K beta; under 5 nM in test [1]; under 5 nM in test [2]; 14 nM at PI3K alpha; under 5 nM in test [3].

For the compound `Cc1nn(C)cc1-n1c(=O)n(C)c2cnc3ccc(-c4cncc(S(C)(=O)=O)c4)cc3c21` [Example 22, 1-(1,3-Dimethyl-1H-pyrazol-4-yl)-8-(5-methanesulfonyl-pyridin-3-yl)-3-methyl-1,3-dihydro-imidazo[4,5-c]quinolin-2-one], the IC50 on PI3K beta amounted to 11 nM; in test [1], 148 nM; in test [2], 297 nM; on PI3K alpha, 6 nM; in test [3], 168 nM.

Regarding `COCc1cc(-c2ccc3ncc4c(c3c2)n(-c2cn(C(C)C)nc2C)c(=O)n4C)cnc1N` [Example 168.1, 8-(6-Amino-5-methoxymethyl-pyridin-3-yl)-1-(1-isopropyl-3-methyl-1H-pyrazol-4-yl)-3-methyl-1,3-dihydro-imidazo[4,5-c]quinolin-2-one], the IC50 on PI3K beta came out at 34 nM; in test [1] it was 25 nM; in test [2], 50 nM; at PI3K alpha, 14 nM; in test [3], 20 nM.

In the case of `CNc1cc(-c2ccc3ncc4c(c3c2)n(-c2cn(C)nc2Cl)c(=O)n4C)cnc1COC` [Example 160.1, 1-(3-Chloro-1-methyl-1H-pyrazol-4-yl)-8-(6-methoxymethyl-5-methylamino-pyridin-3-yl)-3-methyl-1,3-dihydro-imidazo[4,5-c]quinolin-2-one], the concentration for half-maximal inhibition (IC50) on PI3K beta is 17 nM; in test [1], under 5 nM; in test [2] it was 10 nM; at PI3K alpha, 14 nM; in test [3], under 5 nM.

Take `CCn1cc(-n2c(=O)n(C)c3cnc4ccc(-c5cncc(NC)c5)cc4c32)c(C)n1` [Example 180.1, 1-(1-Ethyl-3-methyl-1H-pyrazol-4-yl)-3-methyl-8-(5-methylamino-pyridin-3-yl)-1,3-dihydro-imidazo[4,5-c]quinolin-2-one]: the IC50 is 42 nM on PI3K beta; under 5 nM in test [1]; 41 nM in test [2]; 41 nM on PI3K alpha; under 5 nM in test [3].

In the case of `Cc1nn(C)cc1-n1c(=O)n(C)c2cnc3ccc(-c4cncc(OCCF)c4)cc3c21` [Example 181, 1-(1,3-Dimethyl-1H-pyrazol-4-yl)-8-[5-(2-fluoro-ethoxy)-pyridin-3-yl]-3-methyl-1,3-dihydro-imidazo[4,5-c]quinolin-2-one], the IC50 on PI3K beta was 13 nM; in test [1], 54 nM; in test [2], 62 nM; at PI3K alpha, 12 nM; in test [3] it was 51 nM.

As to `CNc1ccc(-c2ccc3ncc4c(c3c2)n(-c2cn(CC(=O)N(C)C)nc2C)c(=O)n4C)cn1` [Example 118.3, N,N-Dimethyl-2-{3-methyl-4-[3-methyl-8-(6-methylamino-pyridin-3-yl)-2-oxo-2,3-dihydro-imidazo[4,5-c]quinolin-1-yl]-pyrazol-1-yl}-acetamide], the IC50 worked out at 695 nM on PI3K beta; 43 nM in test [1]; 396 nM in test [2]; 16 nM at PI3K alpha; 107 nM in test [3].
